In patent US20240082398A1, “METHODS OF PREPARING AND EXPANDING TYPE I INNATE LYMPHOID CELLS AND THERAPEUTIC USES THEREOF” (City of Hope, priority 2021, published 2024):
“Also recorded” adds a separate entry of the source.

Experiments:
[1] = tested on: mouse LSCs (Lin^−Sca-1^+c-Kit^+); assay: LSCs and ILC1s in vitro co-culture assay (LSC apoptosis), mouse; format: cell-based; settings: recombinant murine cytokine instead of ILC1s, indicated doses, 3-4 days
Procedure: A total of 2,000 LSCs from AML patients labeled with CTV were co-cultured with different numbers of human ILC1s supplemented with human IL-12 (10 ng/ml) and IL-15 (100 ng/ml). After 3 days of co-culture, cells were harvested and analyzed by flow cytometry. 7-AAD was used to identify dead cells. For mouse LSCs co-culture assay, 2,000 LSCs from Mll^PTD/WT/Flt3^ITD/ITD mice labeled with CTV were co-cultured with different numbers of mouse ILC1s supplemented with mouse IL-12 (10 ng/ml) and IL-15 (100 ng/ml). After 3 days of co-culture, cells were harvested and analyzed by flow cytometry. 7-AAD was used to identify the dead cells. For the co-culture of LSCs and ILC1s using the transwell co-culture system, 2,000 human or mouse LSCs were seeded in the lower chamber while different numbers of human or mouse ILC1s were seeded in the upper chamber. After 3 days, cells were harvested and analyzed by flow cytometry. 7-AAD was used to identify the dead cells. For co-culture assay with cytokines and antibodies, 2,000 human or mouse LSCs were co-cultured with different doses of human or mouse TNF-α, IFN-γ, anti-TNF-α (10 μg/ml) Ab, or anti-IFN-γ Ab (10 μg/ml). Three days after the co-culture, cells were harvested and analyzed by flow cytometry. 7-AAD was used to identify the dead cells.
For human LSC co-culture assays, LSCs from patients with AML were labeled with […] CTV and co-cultured in the presence of human IL-12 (10 ng/ml) and IL-15 (100 ng/ml) with various numbers of ILC1s isolated from peripheral blood of healthy donors or patients with AML. […] For all co-culture assays, cells were harvested after 3 days and analyzed using flow cytometry. […]
ILC1s were co-cultured with LSCs at a ratio of 1:1 or 1:2 for 6 h. […] Plates were then shaken at 300 rpm for 1 min, incubated for 60 min at room temperature, and then read on a luminometer (Promega, Glomax). Background luminescence was determined with 100 μl of culture medium without cells and subtracted before fold changes were calculated.

[2] = tested on: LS^−K^+ leukemia progenitor cells; assay: Differentiation of sorted leukemia progenitor cells into myeloid blasts; format: cell-based, mouse; settings: treated 5 days, among the groups
Procedure: The process of LSC differentiation into AML blasts includes transitions from LSCs to LS^−K^+ leukemia progenitor cells, and from LS^−K^+ leukemia progenitor cells to AML blasts. To investigate which part of the process was affected by ILC1 and IFN-γ, LS^−K^+ leukemia progenitor cells were sorted from Mll^PTD/WT/Flt3^ITD/ITD AML mice, then the LS^−K^+ leukemia progenitor cells were treated with WT ILC1, ILC1s, or recombinant IFN-γ for 5 days. […] Thus, ILC1s block LSC differentiation into AML blasts, likely via a process involving by IFN-γ, during the transition from LSCs into LS^−K^+ leukemia progenitor cells, upstream of progenitor cell differentiation into AML blasts (FIG. 9D).
LSCs transition into LS^−K^+ leukemia progenitor cells before becoming AML blasts.

[3] = tested on: mouse LSCs; assay: RNA-seq of LSCs after ILC1 co-culture or IFN-γ treatment; format: cell-based; settings: vs untreated LSCs
Procedure: For mouse ILC1 RNA-sequencing, mouse ILC1s were sorted from the liver of normal mice or mice with AML using BD FACSAria™ Fusion. […] Total RNA was isolated from ILC1s or LSCs using a miRNeasy mini kit (QIAGEN). PolyA RNA-seq was performed in the Integrative Genomics Core of City of Hope National Medical Center. SMART-Seq® Ultra Low Input RNA Kit for Sequencing-v4 (Takara Bio) was used for getting double-strand cDNA from each sample with 2 ng of input total RNA. The resulting cDNA was sheared using a Covaris LE220 sonicator. The sheared DNA was used for to prepare a sequencing library, using a KAPA HyperPrep Kit. The final libraries were quantified using the Qubit Assay Kit (Thermo Fisher Scientific) and Bioanalyzer (Agilent). Sequencing was performed using the single-read mode of 51 cycles of read1 and 7 cycles of index read with V4 reagents on a Hiseq 2500 system (Illumina). Real-time analysis (RTA) 2.2.38 software was used to process the image analysis and base calling.
2,000 mouse LSCs were co-cultured with 1,000 ILC1s or treated with 1 ng/ml IFN-γ for 3 days, and then the LSCs were sorted using BD FACSAria Fusion. Total RNA of LSCs were isolated using miRNeasy mini kit (QIAGEN). SMART-Seq® Ultra Low Input RNA Kit for Sequencing-v4 was used for generating amplified double strand cDNA from each sample with 2 ng of input total RNA according to the manufacturer's protocol. The resulting double-stranded cDNA sheared with Covaris LE220 with the setting of DNA fragment size of 200 bp peak. The sheared DNA was used for sequencing library preparation by using KAPA HyperPrep Kits. The final libraries were quantified with qubit and bioanalyzer. The sequencing was performed with the single read mode of 51 cycles of read1 and 7 cycles of index read with V4 reagents on Hiseq2500. Real-time analysis (RTA) 2.2.38 software was used to process the image analysis and base calling.
Prism software v.8 (GraphPad, CA, USA) was used to perform statistical analysis. Two group comparisons were performed with a two-tailed Student's t-test; multiple group comparisons were performed with a one-way ANOVA test with a multiple comparisons option. For Kaplan-Meier survival curve analysis, the comparisons were performed using a log-rank (Mantel-Cox) test. For continuous endpoints, Student's t test was used to compare two independent conditions, and one-way ANOVA models were used to compare three or more independent conditions. For repeated measures over time, linear mixed models were used to account for the variance and covariance structure. Mouse survival was estimated by the Kaplan-Meier method and compared by log-rank tests. All tests were two-sided. P values were adjusted for multiple comparisons by Holm's procedure. For RNA-seq analysis, sequencing reads were trimmed from sequencing adapters using Trimmomatic^74 and polyA tails using FASTPT^75, and then mapped back to the mouse genome (mm10) using STAR (v. 020201)^76. The gene-level count table was created by HTSeq (v.0.6.0)^77 and normalized by the TMM^78 method. General linear models based on negative binomial distributions (R package “EdgeR”) were used to compare gene expression levels between two specific cell types. […] Pathway and gene set enrichment analyses were performed using the GSEA^79,80 program, which runs the GSEAPreranked algorithm on a ranked list of genes. Data are presented as mean±SD. Prism software v.8 (GraphPad, CA, USA) and SAS v.9.4 (SAS Institute. NC, USA) were used to perform statistical analyses. The p-values are represented as: *<0.05, **<0.01, ***<0.001, and ****<0.0001

recombinant murine IFN-γ: animal-free recombinant murine IFN-γ cytokine
LSC apoptosis on treatment with recombinant cytokine [1]: We observed LSC apoptosis with IFN-γ
LSC apoptosis on treatment with recombinant cytokine ([1]; listed as IFN-γ): induces apoptosis of LSCs
LSC apoptosis on treatment with recombinant cytokine ([1]; listed as Recombinant murine IFN-γ): induced LSC apoptosis
percentage of Mac-1^+ and Gr-1^+ cells from LS^−K^+ leukemia progenitor cells [2]: do not affect the differentiation of leukemia progenitor cells into myeloid blasts
percentage of Mac-1^+ and Gr-1^+ cells from LS^−K^+ leukemia progenitor cells ([2]; listed as recombinant IFN-γ): no statistical difference; also recorded: remained constant
E2F targets, G2M checkpoints, MYC targets and mitotic spindle pathways in LSCs (GSEA) [3]: significant suppression; also recorded: significantly suppressing
JAK-STAT and PI3K-AKT signaling pathways in LSCs [3]: activation of the JAK-STAT and PI3K-AKT signaling pathways
apoptotic pathways in LSCs (GSEA) [3]: activated apoptotic pathways
expression of Akt3, Jak2, Stat1/2, Irf1/2/7/8/9 and Socs1 in LSCs [3]: increased expression
expression of genes associated with lymphoid differentiation (Gimap4, Gpb4, Irf8, Irf1) [3]: increased expression
expression of genes associated with myeloid differentiation (S100a8/S100a9, Chil3, Serpinb1a, Slc28a2) [3]: reduced their expression
